Test results published in DBAASP.
≈ marks a conversion by molar mass, not a printed value.

Legend:
Assay in all cases: ≥ marks a high value that may be exact or a test limit, other limits are often not marked, values filed in µg/mL are converted to µM
[1] = system: Staphylococcus aureus ATCC 2592
[2] = system: Escherichia coli ATCC 25922
Acinetobacter baumannii = system: Acinetobacter baumannii
[3] = system: Staphylococcus aureus ATCC 29213
Escherichia coli = system: Escherichia coli
[4] = system: Staphylococcus aureus ATCC 25923
Pseudomonas aeruginosa = system: Pseudomonas aeruginosa
Staphylococcus aureus = system: Staphylococcus aureus
[5] = system: Staphylococcus epidermidis ATCC 12228
Escherichia coli UB1005 = system: Escherichia coli UB1005
[6] = system: Salmonella enterica subsp. enterica serovar Typhimurium C77-31
[7] = system: Candida albicans ATCC 2002
Bacillus subtilis = system: Bacillus subtilis
[8] = system: Pseudomonas aeruginosa ATCC 9027
[9] = system: Klebsiella pneumoniae ATCC 700603
[10] = system: Pseudomonas aeruginosa CMCCB 10104

| SMILES | MIC [2] | MIC [4] | MIC [7] | MIC [10] | also measured |
| --- | --- | --- | --- | --- | --- |
| CC[C@H](C)[C@H](NC(=O)[C@@H]1CCCN1C(=O)[C@@H](NC(=O)[C@@H](N)C(C)C)[C@@H](C)CC)C(=O)N[C@H](C(=O)N[C@@H](CO)C(=O)NCC(=O)N[C@@H](CC(C)C)C(=O)N[C@@H](CC(C)C)C(=O)N[C@@H](CO)C(=O)N[C@@H](CO)C(=O)N[C@@H](CC(C)C)C(=O)N[C@@H](CC(C)C)C(N)=O)C(C)C [VIPIVSGLLSSLL] | 9.54 µM (≈ 12.5 µg/mL) | – | – | – | MIC [1]: 4.77 µM (≈ 6.25 µg/mL) |
| CC[C@H](C)[C@H](NC(=O)[C@H](CCCN=C(N)N)NC(=O)[C@H](Cc1c[nH]c2ccccc12)NC(=O)[C@H](CCCN=C(N)N)NC(=O)[C@@H](NC(=O)[C@H](CCCCN)NC(=O)[C@H](Cc1c[nH]c2ccccc12)NC(=O)[C@H](CCCN=C(N)N)NC(=O)[C@@H](NC(=O)[C@H](CCCN=C(N)N)NC(=O)[C@@H](N)Cc1c[nH]c2ccccc12)[C@@H](C)CC)[C@@H](C)O)C(=O)N[C@@H](CCCCN)C(N)=O [WRIRWKTRWRIK] | 4 µM (≈ 7.14 µg/mL) | 2 µM (≈ 3.57 µg/mL) | – | – | MIC (Acinetobacter baumannii): 2 µM (≈ 3.57 µg/mL); MIC [3]: 2 µM (≈ 3.57 µg/mL); MIC (Escherichia coli): 2 µM (≈ 3.57 µg/mL); MIC (Pseudomonas aeruginosa): 8 µM (≈ 14.3 µg/mL); MIC (Staphylococcus aureus): 2 µM (≈ 3.57 µg/mL); MIC [5]: 2 µM (≈ 3.57 µg/mL); MIC (Escherichia coli UB1005): 2 µM (≈ 3.57 µg/mL); MIC [6]: 2 µM (≈ 3.57 µg/mL) |
| CC[C@H](C)[C@@H]1NC(=O)[C@H](CCCCN)NC(=O)[C@@H](NC(=O)[C@H](CCCCN)NC(=O)[C@H](CC(C)C)NC(=O)[C@@H](NC(=O)[C@H](CC(=O)O)NC(=O)[C@H](CC(C)C)NC(=O)[C@H](CC(C)C)NC(=O)[C@H](CCC(N)=O)NC(=O)CNC(=O)[C@H](C)NC(=O)[C@@H](NC(=O)[C@H](CCCCN)NC(=O)[C@H](CCCCN)NC(=O)[C@H](CC(C)C)NC(=O)CNC(=O)[C@H](CCC(=O)O)NC(=O)[C@H](CCCCN)NC(=O)[C@@H](NC(=O)[C@H](CO)NC(=O)[C@H](CC(=O)O)NC(=O)[C@H](CC(C)C)NC(=O)[C@H](CC(C)C)NC(=O)CN)C(C)C)C(C)C)[C@@H](C)O)CSSC[C@@H](C(=O)N[C@H](C(=O)N2CCC[C@H]2C(=O)N[C@@H](C)C(=O)O)[C@@H](C)O)NC(=O)CNC(=O)[C@H](CO)NC1=O [GLLDSVKEGLKKVAGQLLDTLKCKISGCTPA] | 1.98 µM (≈ 6.3 µg/mL) | – | 3.92 µM (≈ 12.5 µg/mL) | – | MIC [1]: 1.98 µM (≈ 6.3 µg/mL); MIC (Bacillus subtilis): 7.84 µM (≈ 25 µg/mL) |
| CC[C@H](C)[C@H](N)C(=O)N1CCC[C@H]1C(=O)N[C@@H](CC(C)C)C(=O)N[C@@H](CC(C)C)C(=O)N[C@@H](CCCN=C(N)N)C(=O)N[C@@H](CCCCN)C(=O)NCC(=O)N[C@@H](CCCCN)C(=O)N[C@@H](CCCCN)C(=O)N[C@H](C(=O)N[C@H](C(=O)N[C@@H](Cc1c[nH]c2ccccc12)C(=O)N[C@@H](Cc1c[nH]c2ccccc12)C(=O)O)[C@@H](C)CC)[C@@H](C)CC [IPLLRKGKKIIWW] | > 64 µM | > 64 µM | – | – | MIC (Acinetobacter baumannii): ≥ 64 µM; MIC [8]: 64 µM (≈ 106 µg/mL); MIC [9]: > 64 µM |
| CC[C@H](C)[C@H](NC(=O)[C@H](Cc1ccccc1)NC(=O)[C@H](CO)NC(=O)[C@H](CCCCN)NC(=O)[C@H](CC(C)C)NC(=O)[C@H](CCCCN)NC(=O)[C@H](CCCCN)NC(=O)[C@H](CC(C)C)NC(=O)[C@@H](NC(=O)[C@@H](NC(=O)[C@@H](N)Cc1ccccc1)[C@@H](C)O)[C@@H](C)CC)C(=O)N[C@@H](CCCCN)C(=O)O [FTILKKLKSFIK] | > 64 µM | > 64 µM | – | – | MIC (Acinetobacter baumannii): ≥ 64 µM; MIC [8]: 32 µM (≈ 46.9 µg/mL); MIC [9]: > 64 µM |
| CC[C@H](C)[C@H](N)C(=O)N[C@@H](CC(=O)O)C(=O)N1CCC[C@H]1C(=O)N[C@@H](Cc1ccccc1)C(=O)N[C@H](C(=O)N[C@@H](C)C(=O)NCC(=O)N[C@H](C(=O)N[C@@H](C)C(=O)N[C@@H](C)C(=O)N[C@@H](CCC(=O)O)C(=O)N[C@@H](CCSC)C(=O)N[C@@H](CCSC)C(=O)N[C@@H](CCC(N)=O)C(=O)N[C@@H](Cc1cnc[nH]1)C(=O)N[C@H](C(=O)N[C@@H](Cc1ccc(O)cc1)C(=O)N[C@H]1CSSC[C@@H](C(=O)O)NC(=O)[C@H](CCCCN)NC(=O)[C@H](CCCCN)NC(=O)[C@H](CO)NC(=O)[C@H](C)NC(=O)[C@H](C)NC1=O)C(C)C)C(C)C)C(C)C [IDPFVAGVAAEMMQHVYCAASKKC] | 3.54 µM (≈ 9.09 µg/mL) | 7.08 µM (≈ 18.2 µg/mL) | 7.08 µM (≈ 18.2 µg/mL) | 7.08 µM (≈ 18.2 µg/mL) | – |
| CC[C@H](C)[C@H](NC(=O)[C@H](CCC(N)=O)NC(=O)[C@H](CCCCN)NC(=O)CNC(=O)[C@H](CC(C)C)NC(=O)[C@H](CCC(N)=O)NC(=O)[C@@H]1CCCN1C(=O)[C@H](CC(C)C)NC(=O)[C@H](CCCCN)NC(=O)[C@H](C)NC(=O)[C@H](CCC(=O)O)NC(=O)[C@H](CCCCN)NC(=O)[C@@H](NC(=O)[C@H](CCSC)NC(=O)[C@@H](NC(=O)[C@@H](NC(=O)[C@@H](NC(=O)[C@@H](N)CO)[C@@H](C)CC)[C@@H](C)CC)[C@@H](C)O)[C@@H](C)O)C(=O)N[C@@H](C)C(=O)N[C@H]1CSSC[C@@H](C(=O)O)NC(=O)[C@H]([C@@H](C)O)NC(=O)[C@H](CC(N)=O)NC(=O)[C@H](Cc2ccc(O)cc2)NC(=O)[C@H](CC(C)C)NC(=O)[C@H](CCCN=C(N)N)NC1=O [SIITMTKEAKLPQLGKQIACRLYNTC] | 41 µM (≈ 120 µg/mL) | – | 20.5 µM (≈ 60 µg/mL) | – | MIC [1]: 10.3 µM (≈ 30 µg/mL); MIC (Bacillus subtilis): ≥ 41 µM |
| CC[C@H](C)[C@H](NC(=O)[C@@H](NC(=O)[C@H](CC(=O)O)NC(=O)[C@H](CC(C)C)NC(=O)[C@H](CC(C)C)NC(=O)CN)[C@@H](C)O)C(=O)N[C@@H](CCCCN)C(=O)N[C@@H](CC(N)=O)C(=O)N[C@@H](CCSC)C(=O)N[C@@H](C)C(=O)N[C@@H](CC(C)C)C(=O)N[C@@H](CC(N)=O)C(=O)N[C@@H](C)C(=O)N[C@@H](C)C(=O)N[C@@H](CCCCN)C(=O)N[C@@H](CO)C(=O)N[C@@H](C)C(=O)NCC(=O)N[C@H](C(=O)N[C@@H](CO)C(=O)N[C@H](C(=O)N[C@@H](CC(C)C)C(=O)N[C@@H](CC(N)=O)C(=O)N[C@@H](CO)C(=O)N[C@@H](CC(C)C)C(=O)N[C@@H](CO)C(=O)N[C@H]1CSSC[C@@H](C(=O)O)NC(=O)[C@H]([C@@H](C)O)NC(=O)[C@H](CCCCN)NC(=O)[C@H](CO)NC(=O)[C@H](CC(C)C)NC(=O)[C@H](CCCCN)NC1=O)C(C)C)C(C)C [GLLDTIKNMALNAAKSAGVSVLNSLSCKLSKTC] | 3.61 µM (≈ 12.1 µg/mL) | 3.61 µM (≈ 12.1 µg/mL) | 3.61 µM (≈ 12.1 µg/mL) | 1.79 µM (≈ 6 µg/mL) | – |
| CC(C)C[C@@H]1NC(=O)[C@H](CCCCN)NC(=O)[C@H](CC(=O)O)NC(=O)[C@H](CC(N)=O)NC(=O)[C@H](Cc2ccc(O)cc2)NC(=O)[C@@H](NC(=O)[C@H](CCCCN)NC(=O)[C@@H]2CCCN2C(=O)[C@H](C)NC(=O)[C@H](CCCCN)NC(=O)[C@H](CS)NC(=O)[C@H](CCCCN)NC(=O)[C@H](CC(C)C)NC(=O)[C@H](CCCCN)NC(=O)[C@H](CC(C)C)NC(=O)[C@H](CCCCN)NC(=O)[C@H](CCC(=O)O)NC(=O)[C@@H](N)CCCCN)CSSC[C@@H](C(=O)N[C@H](C(=O)O)[C@@H](C)O)NC(=O)[C@H](C)NC1=O [KEKLKLKCKAPKCYNDKLACT] | > 82.4 µM | > 82.4 µM | ≥ 82.4 µM | ≥ 82.4 µM | – |
| CC[C@H](C)[C@H](NC(=O)CN)C(=O)N[C@@H](CC(C)C)C(=O)N[C@@H](CC(=O)O)C(=O)N[C@H](C(=O)N[C@@H](Cc1ccccc1)C(=O)N[C@@H](CCCCN)C(=O)N[C@@H](CC(N)=O)C(=O)N[C@@H](CCSC)C(=O)N[C@@H](C)C(=O)N[C@@H](CC(C)C)C(=O)N[C@@H](CC(N)=O)C(=O)N[C@@H](C)C(=O)N[C@@H](C)C(=O)N[C@@H](CCCCN)C(=O)N[C@@H](CO)C(=O)N[C@@H](C)C(=O)NCC(=O)N[C@H](C(=O)N[C@@H](CO)C(=O)N[C@H](C(=O)N[C@@H](CC(C)C)C(=O)N[C@@H](CC(N)=O)C(=O)N[C@@H](C)C(=O)N[C@@H](CC(C)C)C(=O)N[C@@H](CO)C(=O)N[C@H]1CSSC[C@@H](C(=O)O)NC(=O)[C@H]([C@@H](C)O)NC(=O)[C@H](CCCCN)NC(=O)[C@H](CO)NC(=O)[C@H](CC(C)C)NC(=O)[C@H](CCCCN)NC1=O)C(C)C)C(C)C)[C@@H](C)O [GILDTFKNMALNAAKSAGVSVLNALSCKLSKTC] | 3.59 µM (≈ 12.1 µg/mL) | 3.59 µM (≈ 12.1 µg/mL) | 1.78 µM (≈ 6 µg/mL) | 3.59 µM (≈ 12.1 µg/mL) | – |
| CC[C@H](C)[C@H](N)C(=O)N[C@H](C(=O)N1CCC[C@H]1C(=O)N[C@@H](Cc1ccccc1)C(=O)N[C@H](C(=O)N[C@@H](C)C(=O)NCC(=O)N[C@H](C(=O)N[C@@H](C)C(=O)N[C@@H](C)C(=O)N[C@@H](CCC(=O)O)C(=O)N[C@@H](CCSC)C(=O)N[C@@H](CCSC)C(=O)N[C@@H](CCC(=O)O)C(=O)N[C@@H](Cc1cnc[nH]1)C(=O)N[C@H](C(=O)N[C@@H](Cc1ccc(O)cc1)C(=O)N[C@H]1CSSC[C@@H](C(=O)O)NC(=O)[C@H](CCCCN)NC(=O)[C@H](CCCCN)NC(=O)[C@H](CO)NC(=O)[C@H](C)NC(=O)[C@H](C)NC1=O)C(C)C)C(C)C)C(C)C)[C@@H](C)CC [IIPFVAGVAAEMMEHVYCAASKKC] | 4.32 µM (≈ 11.1 µg/mL) | 8.64 µM (≈ 22.2 µg/mL) | 4.32 µM (≈ 11.1 µg/mL) | 8.64 µM (≈ 22.2 µg/mL) | – |
